The nature of data set [1]: Aggregation of polyurea capsules, Method 5.6. Format: physicochemical. Details: key: ∘: no aggregation of the capsules; +: aggregation of few capsules together only visible under microscopy; ++: aggregates of mm size; +++: important aggregation; ++++: aggregation is such that a cake is obtained. To be noted: polyurea Method 5.6, phase A of Table 1; for Encapsulation, No precursor (scale of aggregation): free aldehyde as phase B; for Encapsulation, With precursor (scale of aggregation): precursor (Method 1.1) as phase B. As for the experimental part: An oil phase was prepared when Desmodur VL R20 (Bayer) was added in perfume oil at a level of 2.5%.
An aqueous phase (Solution S1) was prepared when Mowiol 4-88 (Kururay) was added in water, at a level of 0.1%.
An aqueous phase (Solution S2) was prepared when diethylentriamine (Merck) was added in water, at a level of 2%.
100 g of oil phase was mixed with 250 g of solution S1, to form an oil-in-water emulsion, in a 500 mL vessel equipped with a propeller operating at 1000 rpm.
After 10 min of stirring, 50 g of solution S2 was added.
The slurry was stirred for 4 h at room temperature.
The Method 5.6 of Example 5 was applied to encapsulate different perfume oils described as phase A (non aldehyde raw materials) and phase B (aldehyde raw materials).
The composition of Phase A is described in Table 1. Phase B is an aldehyde perfume molecule used as such or as its precursor form prepared according to Method 1.1.
According to the aspect of the slurry a scale of aggregation has been defined as follow: […]
(§1) ∘ no aggregation of the capsules + aggregation of few capsules together only visible under microscopy ++ aggregates of mm size +++ important aggregation ++++ aggregation is such that a cake is obtained

Data set [2] in a line: Aggregation of polyurea capsules, Method 5.7. To be noted: polyurea Method 5.7; phase B at 5% in phase A of Table 1. Format: physicochemical. As for the experimental part:
An oil phase was prepared when Desmodur N3300 (Bayer) was added in perfume oil at a level of 6.7%.
An aqueous phase (Solution S1) was prepared when_Mowiol 4-88 (Kururay) was added in water, at a level of 1.1%.
An aqueous phase (Solution S2) was prepared when Hydrosil 1151 (Evonik) was added in water, at a level of 75%.
134 g of oil phase was mixed with 440 g of solution 51, to form an oil-in-water emulsion, in a 1 L vessel equipped with a propeller operating at 1000 rpm.
After 10 min of stirring, 45 g of solution S2 was added.
[…] the slurry was kept at 40° C. for 2 h more before cooling.
The Method 5.7 of Example 5 was applied to encapsulate different perfume oils described as phase A (non aldehyde raw materials) and phase B (aldehyde raw materials).
The composition of Phase A is described in Table 1. Phase B is an aldehyde perfume molecule used as such or as its precursor form added at a level of 5% in Phase A.

Data set [3] can be described thus: Aggregation of polyurea capsules, Method 5.5. Details: key: ∘: no aggregation of the capsules; +: aggregation of few capsules together only visible under microscopy; ++: aggregates of mm size; +++: important aggregation; ++++: aggregation is such that a cake is obtained. To be noted: polyurea Method 5.5, phase A of Table 1; for Encapsulation, No precursor (scale of aggregation): free aldehyde as phase B; for Encapsulation, With precursor (scale of aggregation): precursor (Method 1.1) as phase B. Format: physicochemical. As for the experimental part:
An oil phase was prepared when Desmodur W and Desmodur N3300 (Bayer) were added in perfume oil at a level of 2.2% and 13% respectively.
An aqueous phase (Solution S1) was prepared when Gantrez AN119 (ISP) was added to water, at a level of 1.6%. The solution was heated at 70° C. for 10 min to disperse the polymer.
An aqueous phase (Solution S2) was prepared when Ethylene diamine (Merck) was added to water, at a level of 7.5%.
30 g of the oil phase was mixed with 80 g of solution S1, to form an oil-in-water emulsion, in a 250 mL vessel equipped with a propeller operating at 1000 rpm.
After 10 min of stirring, 20 g of solution S2 was added.
The slurry was stirred for 30 min at room temperature, then heated to 60° C. and stirred for 3 H at 60° C. before cooling.
The Method 5.5 of Example 5 was applied to encapsulate different perfume oils described as phase A (non aldehyde raw materials) and phase B (aldehyde raw materials).
The composition of Phase A was described in Table 1 above. Phase B is an aldehyde perfume molecule used as such or as its precursor form prepared according to Method 1.1.
According to the aspect of the slurry a scale of aggregation was defined as follow: […]
as §1
Phase B was added at a level of 20% of aldehyde in phase A.

Data set [4] can be described thus: Aggregation of polyamide capsules (Example 2 method). Format: physicochemical. Details: key to Encapsulation, No precursor (scale of aggregation) / Encapsulation, With precursor (scale of aggregation): ∘: no aggregation of the capsules; +: aggregation of few capsules together only visible under microscopy; ++: aggregates of mm size; +++: important aggregation; ++++: aggregation is such that a cake is obtained. To be noted: for Encapsulation, No precursor (scale of aggregation): free aldehyde as phase B at 5% in phase A of Table 1; for Encapsulation, With precursor (scale of aggregation): precursor of the aldehyde (Method 1.1) as phase B at 5% in phase A of Table 1. Here is the method:
An oil phase was prepared by dissolving isophtahaloyl dichloride (Fluka) in oil (oil composition specified in the examples below) at a level of 10%
An aqueous solution (Solution S1) was prepared by dissolving a polyvinyl alcohol Mowiol 4-88 (Kuru ray) in water at a level of 1%.
An aqueous solution (Solution S2) was prepared when triethylentetraamine (Hunstman) was diluted in water at a level of 3%.
100 g of the oil phase was mixed with 450 g of solution S1 to form an oil-in-water emulsion in a 1 L reactor equipped with a MIG stirrer operating at 1000 rpm. After 5 minutes of mixing, 450 g of solution S2 was slowly added. The resultant slurry of polyamide capsules was kept under stirring for 2 H.
Two capsule populations were formed. A first encapsulating IPM (isopropyl myristate) and a second containing IPM+5% of ethyl vaniline. The capsules were made according to the method of Example 2.
The methodology of Example 2 was applied to encapsulate different perfume oils described as phase A (non aldehyde raw materials) and phase B (aldehyde raw materials).
The phase B was added at 5% to the phase A prior to encapsulation. Different compositions of phase B have been used corresponding each time to a single aldehyde perfume molecule or to its precursor formed according to the methodology of Method 1.1, above.
According to the condition of the slurry a scale of aggregation has been defined as follows: […]
as §1

The nature of data set [5]: Aggregation of polyurea capsules, Method 5.1. The data set is classed as physicochemical. Here is the method: An oil phase was prepared by adding Desmodur W (Isocyanate from Bayer) to a perfume oil at a level of 16.6%.
An aqueous phase (solution S1) was prepared by adding Luviskol k90 (BASF) to water, at a level of 4.5%. The pH of the solution was adjusted to 11.5 by addition of NaOH at 10%.
An aqueous phase (Solution S2) was prepared when Lupasol PR8515 (BASF) was added to water, at a level of 10%.
300 g of the oil phase was mixed with 500 g of solution S1, to form an oil-in-water emulsion, in a 1 L reactor equipped with a MIG stirrer operating at 1000 rpm.
After 30 minutes of mixing, 200 g of solution S2 was added over a period of 1 minute.
After 30 minutes, the slurry was heated up to 70° C. (1 H), then kept for 2 H at 70° C., then heated to 80° C. and kept for 1 H at 80° C., then heated to 85° C. and kept for 1 H at 85° C., then cooled to 70° C. and kept for 1 H at 70° C. before final cooling at 25° C.
The Method 5.1 of Example 5 was applied to encapsulate different perfume oils described as phase A (non aldehyde raw materials) and phase B (aldehyde raw materials).
In the following trials, phase A was IPM and phase B was aldehyde perfume molecules. Phase B was added at a level of 5% in phase A.
Phase B contains aldehyde C11 iso or the corresponding precursor prepared according to Method 1.1.
Phase B was added at a level of 5% in phase A.

Data set [6] can be described thus: Water solubility of the aldehyde.
A short description of data set [7]: Aggregation of polyurea capsules, Method 5.4. The data set is classed as physicochemical. To be noted: polyurea Method 5.4; phase B at 4% of aldehyde in phase A. Here is the method: An oil phase was prepared when Desmodur W (Bayer) was added in perfume oil at a level of 16.6%.
An aqueous phase (Solution S1) was prepared when Mowiol 40-88 (Kururay) was added in water, at a level of 4.5%.
An aqueous phase (Solution S2) was prepared when Lupasol PR8515 (BASF) was added in water, at a level of 10%.
240 g of oil phase was mixed with 640 g of solution S1, to form an oil-in-water emulsion, in a 1 L reactor equipped with a mig operating at 1000 rpm.
After 30 min, the slurry is heated up to 50° C. and the solution S2 is slowly added (1 H).
The slurry is then heated up to 70° C. and kept for 2 H at 70° C., then heated to 80° C. and kept for 1 H at 80° C., then heated to 85° C. and kept for 1 H at 85° C., then cooled to 70° C. and kept for 1 H at 70° C. before final cooling at 25° C.
The Method 5.4 of Example 5 was applied to encapsulate different perfume oils described as phase A (non aldehyde raw materials) and phase B (aldehyde raw materials).
Phase B is tricyclal or the precursor of tricyclal obtained according to Method 1.1.
Phase B was added at a level of 4% of aldehyde in phase A.

The structures appear in SMILES notation.

Take `CC(C=O)Cc1ccc(C(C)(C)C)cc1` (centres unmarked) [Lilial]: the “Encapsulation, No precursor (scale of aggregation)” value in data set [1] is “∘”; in data set [3], “∘”; in data set [4], “++”. Besides, the “Encapsulation, With precursor (scale of aggregation)” value in data set [1], in data set [3] and in data set [4] was “∘” in each case. The Slurry aspect result in data set [2] is on record as “cake”.
On to `CC1=CC(C)C(C=O)CC1` (centres unmarked) [Tricyclal], for which the “Encapsulation, No precursor (scale of aggregation)” value is “+++” in data set [1], “++++” in data set [3] and “++++” in data set [4]. Also, the “Encapsulation, With precursor (scale of aggregation)” value in data set [1], in data set [3] and in data set [4] was “∘” in each case. The “Quality of the capsules examined microscopically” value in data set [5] (IPM + aldehyde) is reported as “aggregated”. For the same molecule, the “Encapsulation (aggregation)” value in data set [5] (free aldehyde at 5% in IPM) is “Aggregation”. For the same molecule, the Water solubility in data set [6] (Table 2), in data set [6] (Table 3), in data set [6] (Table of Example 11) and in data set [6] (Table of Example 13) was 700 ppm in each case. For the same molecule, the “Aggregation of the capsules obtained” value in data set [7] is reported as “slightly aggregated”.

These data come from patent US20130089591A1, “Compositions” (Givaudan SA, priority 2010, published 2013).
